Values joined by “and” are separate entries in the source; they are usually repeats but may differ in a detail not shown here. Identical values can stand only once. Like-named read-outs stand apart in the source and are kept apart here.
Key:
[1] = Microsomal stability assay, mouse liver microsomes; conditions: without Cobi, 1 μM compound, 0.5 mg/mL microsomal protein, NADPH
HIV-1NL4-3 = assay: Anti-HIV-1 assay in TZM-GFP cells; conditions: for Inhibition% at 20 μM: 20 μM compound; for Inhibition% at 2 μM: 2 μM compound
[2] = Microsomal stability assay, human liver microsomes; conditions: without Cobi; for Phase I metabolic stability t1/2, HLM: 1 μM compound, 0.5 mg/mL microsomal protein, NADPH
[3] = mouse, microsomes
[4] = human, microsomes
[5] = HLMs; cited from earlier work

Q: With “2-(2-(2,4-Dioxo-1,3-diazaspiro[4.5]decan-3-yl)acetamido)-N-methyl-3-phenyl-N-(p-tolyl)propanamide [Compound 47]” as the compound, how does the “Phase I metabolic stability t1/2, MLM” value [1] read?
A: 1.2 min

Q: What about the “Inhibition% at 20 μM” value (HIV-1NL4-3) of the same compound?
A: −/92%

Q: What about the “Phase I metabolic stability t1/2, HLM” value [2] of the same compound?
A: 3.3 min

Q: Which “Phase I metabolic stability t1/2, MLM” value [3] does the source give for CN(C(=O)[C@H](Cc1ccccc1)NC(=O)Cc1ccc2ccccc2c1)c1ccc(Cl)cc1 [Compound 27, (S)-N-(4-Chlorophenyl)-N-methyl-2-(2-(naphthalen-2-yl)acetamido)-3-phenylpropanamide] here?
A: 1.4 min

Q: What about the “Phase I metabolic stability t1/2, HLM” value [4] of the same compound?
A: 2.7 min

Q: What about the “Inhibition% at 2 μM” value (HIV-1NL4-3) of the same compound?
A: 95%

Q: What about the “Inhibition% at 20 μM” value (HIV-1NL4-3) of the same compound?
A: 100%

Q: With COc1ccc(N(C)C(=O)C(Cc2ccccc2)NC(=O)CN2C(=O)NC3(CCCCC3)C2=O)cc1 (stereo not shown) [Compound 46, 2-(2-(2,4-Dioxo-1,3-diazaspiro[4.5]decan-3-yl)acetamido)-N-(4-methoxyphenyl)-N-methyl-3-phenylpropanamide] as the compound, how does the “Phase I metabolic stability t1/2, MLM” value [1] read?
A: 0.7 min

Q: What about the “Inhibition% at 20 μM” value (HIV-1NL4-3) of the same compound?
A: −/93%

Q: And the “fold improved half-life over PF74 in HLMs” value (shortened to “fold improved half-life”) [2]?
A: 7 to 10 fold

Q: And the “Phase I metabolic stability t1/2, HLM” value [2]?
A: 5.2 min

Q: Which “Phase I metabolic stability t1/2, MLM” value [1] does the source give for CN(C(=O)C(Cc1ccccc1)NC(=O)CN1C(=O)NC2(CCCCC2)C1=O)c1ccc(F)cc1 (stereo not shown) [Compound 48, 2-(2-(2,4-Dioxo-1,3-diazaspiro[4.5]decan-3-yl)acetamido)-N-(4-fluorophenyl)-N-methyl-3-phenylpropanamide] here?
A: 0.5 min

Q: What about the “Inhibition% at 2 μM” value (HIV-1NL4-3) of the same compound?
A: 9%

Q: What about the “Inhibition% at 20 μM” value (HIV-1NL4-3) of the same compound?
A: 99%

Q: And the “Phase I metabolic stability t1/2, HLM” value [2]?
A: 1.1 min

Q: What does the source list for CN(C(=O)C(Cc1ccccc1)NC(=O)CN1C(=O)NC2(CCCCC2)C1=O)c1ccc(Cl)cc1 (stereo not shown) [Compound 50, N-(4-Chlorophenyl)-2-(2-(2,4-dioxo-1,3-diazaspiro[4.5]decan-3-yl)acetamido)-N-methyl-3-phenylpropanamide]?
A: Phase I metabolic stability t1/2, MLM [3]: 1.1 min; Phase I metabolic stability t1/2, HLM [4]: 2.5 min; Inhibition% at 20 μM (HIV-1NL4-3): −/96%

Q: What does the source list for “(2S)-2-(2-(4,7-Dimethyl-2-oxoindolin-3-yl)acetamido)-N-methyl-N,3-diphenylpropanamide [Compound 20]”?
A: Phase I metabolic stability t1/2, MLM [1]: 0.6 min; Phase I metabolic stability t1/2, HLM [2]: 1.5 min

Q: Which “Phase I metabolic stability t1/2, MLM” value [3] does the source give for “(2S)-N-(3-Chlorophenyl)-2-(2-(4,7-dimethyl-2-oxoindolin-3-yl)acetamido)-N-methyl-3-phenylpropanamide [Compound 24]” here?
A: 1.4 min

Q: And the “Phase I metabolic stability t1/2, HLM” value [4]?
A: 6.7 min

Q: What about the “fold improved half-life” value [2] of the same compound?
A: 7 to 10 fold and 10 fold

Q: With “(2S)-N-Methyl-2-(2-(7-methyl-2-oxoindolin-3-yl)acetamido)-N,3-diphenylpropanamide [Compound 16]” as the compound, how does the “Phase I metabolic stability t1/2, MLM” value [1] read?
A: 1 min

Q: What about the “Inhibition% at 2 μM” value (HIV-1NL4-3) of the same compound?
A: 0%

Q: And the “Inhibition% at 20 μM” value (HIV-1NL4-3)?
A: 91%

Q: What about the “fold improved half-life” value [2] of the same compound?
A: 7 to 10 fold

Q: And the “Phase I metabolic stability t1/2, HLM” value [2]?
A: 7.0 min

Q: Which “Phase I metabolic stability t1/2, MLM” value [1] does the source give for “(S)-2-(2-(1,3-Dimethyl-2,6-dioxo-1,2,3,6-tetrahydro-7H-purin-7-yl)acetamido)-N-methyl-N,3-diphenylpropanamide [Compound 37]” here?
A: 1.2 min

Q: What about the “Inhibition% at 2 μM” value (HIV-1NL4-3) of the same compound?
A: 10%

Q: What about the “Inhibition% at 20 μM” value (HIV-1NL4-3) of the same compound?
A: 94%

Q: And the “fold improved half-life” value [2]?
A: 7 to 10 fold

Q: And the “Phase I metabolic stability t1/2, HLM” value [2]?
A: 4.7 min

Q: What does the source list for “(S)-2-(2-(5-Methoxy-1H-indol-3-yl)acetamido)-N-methyl-N,3-diphenylpropanamide [Compound 3]”?
A: Phase I metabolic stability t1/2, MLM [1]: 0.5 min; Phase I metabolic stability t1/2, HLM [2]: 1.2 min

Q: For “(S)-N-(3-Chlorophenyl)-2-(2-(5-hydroxy-1H-indol-3-yl)acetamido)-N-methyl-3-phenylpropanamide [Compound 13]”, which “fold potency drop on moving the Cl from 4 position to 3” value (HIV-1NL4-3; compared with 4-Cl analog 12) is on record?
A: 10 fold

Q: Which results are given for “(S)-N-(3-Chlorophenyl)-N-methyl-2-(2-(naphthalen-1-yl)acetamido)-3-phenylpropanamide [Compound 34]”?
A: Inhibition% at 2 μM (HIV-1NL4-3): 53%; Inhibition% at 20 μM (HIV-1NL4-3): 96%

Q: Which results are given for “(S)-N-(3-Chlorophenyl)-N-methyl-2-(2-(naphthalen-2-yl)acetamido)-3-phenylpropanamide [Compound 28]”?
A: Inhibition% at 2 μM (HIV-1NL4-3): 0%; Inhibition% at 20 μM (HIV-1NL4-3): 94%

Q: Which “Inhibition% at 2 μM” value (HIV-1NL4-3) does the source give for “(S)-N-(3-Fluorophenyl)-N-methyl-2-(2-(naphthalen-1-yl)acetamido)-3-phenylpropanamide [Compound 35]” here?
A: 44%

Q: And the “Inhibition% at 20 μM” value (HIV-1NL4-3)?
A: 97%

Q: With “(S)-N-(3-Fluorophenyl)-N-methyl-2-(2-(naphthalen-2-yl)acetamido)-3-phenylpropanamide [Compound 29]” as the compound, how does the “Inhibition% at 2 μM” value (HIV-1NL4-3) read?
A: 0%

Q: What about the “Inhibition% at 20 μM” value (HIV-1NL4-3) of the same compound?
A: 97%

Q: Which “Inhibition% at 2 μM” value (HIV-1NL4-3) does the source give for “(S)-N-(4-Chlorophenyl)-2-(2-(1,3-dimethyl-2,6-dioxo-1,2,3,6-tetrahydro-7H-purin-7-yl)acetamido)-N-methyl-3-phenylpropanamide [Compound 41]” here?
A: 6%

Q: And the “Inhibition% at 20 μM” value (HIV-1NL4-3)?
A: 96%

Q: With “(S)-N-(4-Chlorophenyl)-2-(2-(5-hydroxy-1H-indol-3-yl)acetamido)-N-methyl-3-phenylpropanamide [Compound 12]” as the compound, how does the “fold higher antiviral potency than PF74” value (HIV-1NL4-3; EC50 compared with PF74) read?
A: up to 20 fold

Q: Which “Phase I metabolic stability t1/2, MLM” value [1] does the source give for “(S)-N-(4-Chlorophenyl)-2-(2-(5-methoxy-1H-indol-3-yl)acetamido)-N-methyl-3-phenylpropanamide [Compound 7]” here?
A: 0.6 min

Q: And the “Phase I metabolic stability t1/2, HLM” value [2]?
A: 1.8 min

Q: For “(S)-N-(4-Chlorophenyl)-N-methyl-2-(2-(naphthalen-1-yl)acetamido)-3-phenylpropanamide [Compound 33]”, which “Phase I metabolic stability t1/2, MLM” value [3] is on record?
A: 0.6 min

Q: What about the “Phase I metabolic stability t1/2, HLM” value [4] of the same compound?
A: 1.1 min

Q: What about the “Inhibition% at 2 μM” value (HIV-1NL4-3) of the same compound?
A: 98%

Q: What about the “Inhibition% at 20 μM” value (HIV-1NL4-3) of the same compound?
A: 100%

Q: For “(S)-N-Ethyl-2-(2-(naphthalen-1-yl)acetamido)-N,3-diphenylpropanamide [Compound 36]”, which “Inhibition% at 2 μM” value (HIV-1NL4-3) is on record?
A: 53%

Q: What about the “Inhibition% at 20 μM” value (HIV-1NL4-3) of the same compound?
A: 98%

Q: Which results are given for “(S)-N-Ethyl-2-(2-(naphthalen-2-yl)acetamido)-N,3-diphenylpropanamide [Compound 30]”?
A: Inhibition% at 2 μM (HIV-1NL4-3): 46%; Inhibition% at 20 μM (HIV-1NL4-3): 97%

Q: For “(S)-N-Methyl-2-(2-(2-methyl-1H-indol-3-yl)acetamido)-N,3-diphenylpropanamide [PF74, reference compound]”, which “half-life (t1/2) in human liver microsomes” value [5] is on record?
A: less than 1 min

Q: And the “Phase I metabolic stability t1/2, MLM” value [3]?
A: 0.6 min

Q: And the “Inhibition% at 2 μM” value (HIV-1NL4-3)?
A: 91%

Q: And the “Inhibition% at 20 μM” value (HIV-1NL4-3)?
A: 98%

Q: Which results are given for “(S)-N-Methyl-2-(2-(naphthalen-1-yl)acetamido)-3-phenyl-N-(p-tolyl)propanamide [Compound 32]”?
A: Inhibition% at 2 μM (HIV-1NL4-3): 96%; Inhibition% at 20 μM (HIV-1NL4-3): 100%

Q: With “(S)-N-Methyl-2-(2-(naphthalen-1-yl)acetamido)-N,3-diphenylpropanamide [Compound 31]” as the compound, how does the “Phase I metabolic stability t1/2, MLM” value [1] read?
A: 0.5 min

Q: And the “Inhibition% at 2 μM” value (HIV-1NL4-3)?
A: 66%

Q: And the “Inhibition% at 20 μM” value (HIV-1NL4-3)?
A: 100%

Q: And the “Phase I metabolic stability t1/2, HLM” value [2]?
A: 0.6 min

Q: With “(S)-N-Methyl-2-(2-(naphthalen-2-yl)acetamido)-3-phenyl-N-(p-tolyl)propanamide [Compound 26]” as the compound, how does the “Inhibition% at 2 μM” value (HIV-1NL4-3) read?
A: 80%

Q: And the “Inhibition% at 20 μM” value (HIV-1NL4-3)?
A: 99%

Q: Which “Phase I metabolic stability t1/2, MLM” value [1] does the source give for “(S)-N-Methyl-2-(2-(naphthalen-2-yl)acetamido)-N,3-diphenylpropanamide [Compound 25]” here?
A: 0.5 min

Q: What about the “Inhibition% at 2 μM” value (HIV-1NL4-3) of the same compound?
A: 40%

Q: What about the “Inhibition% at 20 μM” value (HIV-1NL4-3) of the same compound?
A: 98%

Q: And the “Phase I metabolic stability t1/2, HLM” value [2]?
A: 1.8 min

Q: For “N-(3-Bromophenyl)-2-(2-(2,4-dioxo-1,3-diazaspiro[4.5]decan-3-yl)acetamido)-N-methyl-3-phenylpropanamide [Compound 52]”, which “Inhibition% at 20 μM” value (HIV-1NL4-3) is on record?
A: −/36%

Q: With “N-(3-Chlorophenyl)-2-(2-(2,4-dioxo-1,3-diazaspiro[4.5]decan-3-yl)acetamido)-N-methyl-3-phenylpropanamide [Compound 51]” as the compound, how does the “Inhibition% at 2 μM” value (HIV-1NL4-3) read?
A: 9%

Q: And the “Inhibition% at 20 μM” value (HIV-1NL4-3)?
A: 98%

From paper PMC7530112 (European journal of medicinal chemistry, 2020)
